Assays:
AD38 cells = test: Viability of AD38 cells, Promega CellTiter-Glo; assay type: cell-based; details: 10 μM compound, 6 days, CellTiter-Glo luminescence, controls being 100%
Experimental: (§1) Example 63: Assay Measuring Activity of Compounds on Viral Production in and on Viability of AD38 Cells
(§2) AD38 cells were then re-suspended with 10 mL of Treatment Medium and counted. Wells of a collagen coated 96-well NUNC microtiter plate were seeded at 50,000/well in 180 μL of Treatment Medium, and 20 μL of in treatment media with either 10% DMSO (Control) or a 10× solution of compound in 10% DMSO was added. Plates were incubated for 6 days at 37° C.
At the end of compound treatment period cell viability was assessed using a Promega CellTiter-Glo protocol. All supernatant was removed the previously treated 96-well microtiter plate, and 50 μL Tetracycline-free treatment medium (DMEM/F12 (1:1), 1×Pen/step (cat#: 30-002-CL, Mediatech, Inc), with 2% FBS, Tet-system approved (cat#: 631106, Clontech), and 1% DMSO was added back to each well. Another 50 μL of CellTiter-Glo reagent solution (Promega, G7573) was then added at room temperature and the contents mixed for 2 minutes on an orbital shaker to induce cell lysis. This was followed by incubation at room temperature for 10 minutes to stabilize the luminescent signal. The luminescence was recorded for 0.2 seconds per well on a Tecan multimode platereader (Infinite M1000 pro). The luminescent signal from each well was normalized against that of untreated (DMSO) control wells. All results in Table 3 were reported with percent viability (with controls being 100%).

HBV = test: Viral load production in AD38 cells, quantitative PCR of the core sequence in supernatant; assay type: cell-based; details: 10 μM compound, 6 days at 37° C., supernatant qPCR vs DMSO control; for activity at 10 µM: Hepatitis B virus, 144 h, read-out: AD38 Viral Load (%) (VL with cmpd/VL in DMSO control) at 10 μM
Experimental: as §1, §2
Viral load production was assayed by quantitative PCR of the core sequence. […] The PCR mixture was incubated at 45° C. for 5 minutes, then 95° C. for 10 min, followed by 40 cycles of 10 seconds at 95° C. and 20 seconds at 60° C. Viral load was quantitated against known standards by using ViiA™ 7 Software. Viral load in the supernatant from wells with treated cells were compared against viral load in supernatant from DMSO control wells (≥3 per plate).

Compound | AD38 Viability Normalized Result (cmpd/DMSO %) at 10 μM (AD38 cells) | AD38 Viral Load (%) (VL with cmpd/VL in DMSO control) at 10 μM (HBV) | activity at 10 µM (HBV)
11-oxo-N-(4-(4-((2,2,2-trifluoroacetyl)-λ^4-azanyl)butoxy) phenethyl)-10,11-dihydrodibenzo[b, f][1,4]thiazepine-8-carboxamide 5,5-dioxide [Compound 482] | 101% | 16.3% | –
O=C(NCCOc1ccc(F)cc1)c1ccc2c(c1)NC(=O)c1ccccc1S2(=O)=O [Compound 469] | 100% | – | 4.1%
O=C(NCC(c1ccccc1)N1CCCC1)c1ccc2c(c1)NC(=O)c1ccccc1S2(=O)=O (stereo not shown) [Compound 471] | 103% | – | 72.6%
O=C(NCCC(c1ccccc1)N1CCCC1)c1ccc2c(c1)NC(=O)c1ccccc1S2(=O)=O (stereo not shown) [Compound 472] | 105% | – | 32.6%
O=C(NCCc1ccc(-c2cnn[nH]2)cc1)c1ccc2c(c1)NC(=O)c1ccccc1S2(=O)=O [Compound 475, N-(4-(1H-1,2,3-triazol-5-yl)phenethyl)-11-oxo-10,11-dihydrodibenzo[b,f][1,4]thiazepine-8-carboxamide 5,5-dioxide] | 96% | – | 0.7%
O=C(NCCCCOc1ccc(CCNC(=O)c2ccc3c(c2)NC(=O)c2ccccc2S3(=O)=O)cc1)OCc1ccccc1 [Compound 481] | 91% | – | 0.5%
CN1c2ccc(C(=O)NCCc3ccc(S(=O)(=O)N(C)C)cc3)cc2NC(=O)c2ccccc21 [Compound 498] | 76% | – | 13.8%
CCN1c2ccc(C(=O)NCCc3ccc(S(=O)(=O)N(C)C)cc3)cc2NC(=O)c2ccccc21 [Compound 501] | 91% | – | 5.5%
O=C(NCCc1ccc(-c2ccccc2)cc1)c1ccc2c(c1)NC(=O)c1ccccc1N2 [Compound 508] | 103% | – | 59.1%
CN(C)S(=O)(=O)c1ccc(CCNC(=O)c2ccc3c(c2)NC(=O)c2ccccc2N3)cc1 [Compound 510] | 92% | – | 21.4%
CCC(CNC(=O)c1ccc2c(c1)NC(=O)c1ccccc1S2(=O)=O)c1ccccc1 (stereo not shown) [Compound 530] | 92% | – | 5%
O=C(NCCc1ccc(-c2ccc(F)cc2)cc1)c1ccc2c(c1)NC(=O)c1ccccc1S2(=O)=O [Compound 533] | 3% | – | 0.6%
O=C(NCc1ccc(-c2cncnc2)cc1)c1ccc2c(c1)NC(=O)c1ccccc1S2 [Compound 537] | 100% | – | 51.5%
O=C(NCCc1ccc(-c2ccc(F)cc2)cc1)c1ccc2c(c1)NC(=O)c1ccccc1S2 [Compound 538] | 62% | – | 8.1%
O=C(NCc1ccc(-c2ccccc2)cc1)c1ccc2c(c1)NC(=O)c1ccccc1S2(=O)=O [Compound 563] | 59% | – | 0.9%
O=C(NCc1ccc(-c2ccc(F)cc2)cc1)c1ccc2c(c1)NC(=O)c1ccccc1S2(=O)=O [Compound 564] | 29% | – | 0.9%
O=C(NCc1cccc(-c2ccccc2)c1)c1ccc2c(c1)NC(=O)c1ccccc1S2(=O)=O [Compound 565] | 105% | – | 1.5%
O=C(NCc1cccc(-c2ccc(F)cc2)c1)c1ccc2c(c1)NC(=O)c1ccccc1S2(=O)=O [Compound 566] | 95% | – | 0.6%
O=C(NCc1ccc(-n2nccn2)cc1)c1ccc2c(c1)NC(=O)c1ccccc1S2(=O)=O [Compound 567] | 104% | – | 3.3%
O=C(NCc1cccc(-n2nccn2)c1)c1ccc2c(c1)NC(=O)c1ccccc1S2(=O)=O [Compound 568] | 101% | – | 3%
O=C(NCc1ccc(-c2cn(Cc3ccccc3)nn2)cc1)c1ccc2c(c1)NC(=O)c1ccccc1S2(=O)=O [Compound 569-A] | 97% | – | 1.5%

Compound | AD38 Viability Normalized Result (cmpd/DMSO %) at 10 μM (AD38 cells) | AD38 Viral Load (%) (VL with cmpd/VL in DMSO control) at 10 μM (HBV) | activity at 10 µM (HBV)
O=C(NCc1ccc(-c2c[nH]nn2)cc1)c1ccc2c(c1)NC(=O)c1ccccc1S2(=O)=O [Compound 569] | 100% | – | 2.8%
O=C(NCc1cccc(-c2cnn[nH]2)c1)c1ccc2c(c1)NC(=O)c1ccccc1S2(=O)=O [Compound 570] | 112% | – | 8.7%
O=C(NCc1ccc(-c2ccc(O)cc2)cc1)c1ccc2c(c1)NC(=O)c1ccccc1S2(=O)=O [Compound 638] | 7% | – | 8.6%
O=C(NCc1ccc(-c2cccc(O)c2)cc1)c1ccc2c(c1)NC(=O)c1ccccc1S2(=O)=O [Compound 639] | 34% | – | 4.5%
C[C@H](NC(=O)c1ccc2c(c1)NC(=O)c1ccccc1S2(=O)=O)c1ccc(-c2ccc(O)cc2)cc1 [Compound 640] | 1% | – | 4.4%
C[C@@H](NC(=O)c1ccc2c(c1)NC(=O)c1ccccc1S2(=O)=O)c1ccc(-c2ccc(O)cc2)cc1 [Compound 643] | 104% | – | 30%
O=C(NCc1ccc(-c2ccc3[nH]cnc3c2)cc1)c1ccc2c(c1)NC(=O)c1ccccc1S2(=O)=O [Compound 644] | 89% | – | 31.2%
CN(C)c1ccc(-c2ccc(CNC(=O)c3ccc4c(c3)NC(=O)c3ccccc3S4(=O)=O)cc2)cc1 [Compound 646] | 92% | – | 6%
O=C(NCc1ccc(-c2ccc3[nH]ccc3c2)cc1)c1ccc2c(c1)NC(=O)c1ccccc1S2(=O)=O [Compound 647] | 102% | – | 0.4%
Cl.NCc1ccc(-c2ccc(CNC(=O)c3ccc4c(c3)NC(=O)c3ccccc3S4(=O)=O)cc2)cc1 [Compound 652, N-((4′-(aminomethyl)-[1,1′-biphenyl]-4-yl)methyl)-11-oxo-10,11-dihydrodibenzo[b,f][1,4]thiazepine-8-carboxamide 5,5-dioxide hydrochloride] | 86% | – | 36.4%
N#Cc1ccc(-c2ccc(CNC(=O)c3ccc4c(c3)NC(=O)c3ccccc3S4(=O)=O)cc2)cc1 [Compound 652-A, N-((4′-cyano-[1,1′-biphenyl]-4-yl)methyl)-11-oxo-10,11-dihydrodibenzo[b,f][1,4]thiazepine-8-carboxamide 5,5-dioxide] | 36% | – | 4.6%
CN(C)CCOc1ccc(-c2ccc(CNC(=O)c3ccc4c(c3)NC(=O)c3ccccc3S4(=O)=O)cc2)cc1 [Compound 657] | 104% | – | 19.4%
CN(Cc1ccc(-c2ccc(O)cc2)cc1)C(=O)c1ccc2c(c1)NC(=O)c1ccccc1S2(=O)=O [Compound 662] | 34% | – | 20.8%
N#Cc1cccc(-c2ccc(CNC(=O)c3ccc4c(c3)NC(=O)c3ccccc3S4(=O)=O)cc2)c1 [Compound 676-A] | 98% | – | 5.9%
O=C(NCc1ccc(-c2ccc3[nH]ncc3c2)cc1)c1ccc2c(c1)NC(=O)c1ccccc1S2(=O)=O [Compound 678] | 76% | – | 1.4%
CN(C)CCOc1cccc(-c2ccc(CNC(=O)c3ccc4c(c3)NC(=O)c3ccccc3O4)cc2)c1 [Compound 717] | 0% | – | 170%
O=C(NCc1ccc(-c2ccc(O)cc2)cc1)c1ccc2c(c1)NC(=O)c1ccccc1O2 [Compound 719] | 110% | – | 4.6%
O=C(NCc1ccc(-c2cccc(O)c2)cc1)c1ccc2c(c1)NC(=O)c1ccccc1O2 [Compound 720] | 102% | – | 48.5%
O=C(NCc1ccc(-c2ccc(O)cc2)c(Cl)c1)c1ccc2c(c1)NC(=O)c1ccccc1O2 [Compound 721] | 29% | – | 9.7%
O=C(NCc1ccc(-c2ccc(O)cc2Cl)cc1)c1ccc2c(c1)NC(=O)c1ccccc1O2 [Compound 722] | 29% | – | 8.8%

Reference: patent US10766890B2, “Hepatitis B core protein modulators” (Assembly Biosciences, Inc., priority 2015, dated 2020)
